According to patent US9278922B2 (ABBVIE INC., priority 2009, dated 2016):

Tested on: HCV 1b-Con-1 replicon
Test: HCV 1b-Con-1 replicon assay (luciferase reporter gene, HuH-7 cells)
Format: cell-based, Hepatitis C virus (HCV) genotype 1b-Con1
Conditions: Hepatitis C virus, Huh-7, luciferase reporter gene activity in the replicon, in the presence of 5% FBS

Row | SMILES | EC50 [nM]
1 | CCN(CC)[C@@H](C(=O)N1CCC[C@H]1C(=O)Nc1ccc(CN(Cc2ccc(NC(=O)[C@@H]3CCCN3C(=O)[C@@H](c3ccccc3)N(CC)CC)cc2)c2ccccc2)cc1)c1ccccc1 [Example 21, (R,2S,2′S)-N,N′-(4,4′-(phenylazanediyl)bis(methylene)bis(4,1-phenylene))bis(1-((R)-2-(diethylamino)-2-phenylacetyl)pyrrolidine-2-carboxamide)] | < 1
2 | COC(=O)N[C@H](C(=O)N1CCC[C@H]1C(=O)Nc1cccc(CN(Cc2cccc(NC(=O)[C@@H]3CCCN3C(=O)[C@@H](NC(=O)OC)C(C)(C)C)c2)c2ccc(F)cc2)c1)C(C)(C)C [Example 143, dimethyl ([(4-fluorophenyl)imino]bis{methanediylbenzene-3,1-diylcarbamoyl(2S)pyrrolidine-2,1-diyl[(2S)-3,3-dimethyl-1-oxobutane-1,2-diyl]})biscarbamate] | < 1
3 | CCN(CC)[C@@H](C(=O)N1CCC[C@H]1C(=O)Nc1ccc(CN(Cc2ccc(NC(=O)[C@@H]3CCCN3C(=O)[C@@H](NC(=O)OC)[C@@H](C)OC)cc2)c2ccc(F)cc2)cc1)c1ccccc1 [Example 84, N-(methoxycarbonyl)-O-methyl-L-threonyl-N-[4-({[4-({1-[(2R)-2-(diethylamino)-2-phenylacetyl]-L-prolyl}amino)benzyl](4-fluorophenyl)amino}methyl)phenyl]-L-prolinamide] | < 1
4 | COC(=O)N[C@H](C(=O)N1CC[C@H](O)[C@H]1C(=O)Nc1ccc(CN(Cc2ccc(NC(=O)[C@@H]3[C@@H](O)CCN3C(=O)[C@@H](NC(=O)OC)C(C)(C)C)cc2)c2ccc(F)cc2)cc1)C(C)(C)C [Example 141] | 10 to 100
5 | COC(=O)N[C@H](C(=O)N1CCC[C@H]1c1nc2cc(CN(Cc3ccc4[nH]c([C@@H]5CCCN5C(=O)[C@@H](NC(=O)OC)C(C)C)nc4c3)c3ccc(F)cc3)ccc2[nH]1)C(C)C [Example 96, methyl [(1S)-1-{[(2S)-2-(5-{[(4-fluorophenyl)({2-[(2S)-1-{(2S)-2-[(methoxycarbonyl)amino]-3-methylbutanoyl}pyrrolidin-2-yl]-1H-benzimidazol-5-yl}methyl)amino]methyl}-1H-benzimidazol-2-yl)pyrrolidin-1-yl]carbonyl}-2-methylpropyl]carbamate] | < 1
6 | COC(=O)N[C@H](C(=O)N1C[C@@H](O)C[C@H]1C(=O)Nc1ccc(CN(Cc2ccc(NC(=O)[C@@H]3C[C@H](O)CN3C(=O)[C@@H](NC(=O)OC)C(C)(C)C)cc2)c2ccc(F)cc2)cc1)C(C)(C)C [Example 136] | < 1
7 | CCN(CC)[C@@H](C(=O)N1CCC[C@H]1C(=O)Nc1ccc(CN(Cc2ccc(NC(=O)[C@@H]3CCCN3C(=O)[C@@H](NC(=O)OC)[C@H]3CCOC3)cc2)c2ccc(F)cc2)cc1)c1ccccc1 [Example 81, methyl {(1S)-2-{(2S)-2-[(4-{[{4-[({(2S)-1-[(2R)-2-(diethylamino)-2-phenylacetyl]pyrrolidin-2-yl}carbonyl)amino]benzy}(4-fluorophenyl)amino]methyl}phenyl)carbamoyl]pyrrolidin-1-yl}-2-oxo-1-[(3R)-tetrahydrofuran-3-yl]ethyl}carbamate] | < 1
8 | CC(C)(C)[C@@H](C(=O)N1CCC[C@H]1C(=O)Nc1ccc(CN(Cc2ccc(NC(=O)[C@@H]3CCCN3C(=O)[C@@H](N3CCNC3=O)C(C)(C)C)cc2)c2ccccc2)cc1)N1CCNC1=O [Example 31, (2S,2′S)-N,N′-[(phenylimino)bis(methanediylbenzene-4,1-diyl)]bis{1-[(2S)-3,3-dimethyl-2-(2-oxoimidazolidin-1-yl)butanoyl]pyrrolidine-2-carboxamide}] | < 1
9 | O=C(Nc1ccc(CN(Cc2ccc(NC(=O)[C@@H]3C[C@@H]4CCC[C@@H]4N3C(=O)[C@@H](c3ccccc3)N3CCCCC3)cc2)c2ccc(F)cc2)cc1)[C@@H]1C[C@@H]2CCC[C@@H]2N1C(=O)[C@@H](c1ccccc1)N1CCCCC1 [Example 124, (2S,3aS,6aS,2′S,3a′S,6a′S)-N,N′-{[(4-fluorophenyl)imino]bis(methanediylbenzene-4,1-diyl)}bis{1-[(2R)-2-phenyl-2-piperidin-1-ylacetyl]octahydrocyclopenta[b]pyrrole-2-carboxamide}] | < 1
10 | COCCN(Cc1ccc(NC(=O)[C@@H]2CCCN2C(=O)[C@@H](NC(=O)OC)C(C)(C)C)cc1)Cc1ccc(NC(=O)[C@@H]2CCCN2C(=O)[C@@H](NC(=O)OC)C(C)(C)C)cc1 [Example 32, dimethyl ([(2-methoxyethyl)imino]bis{methanediylbenzene-4,1-diylcarbamoyl(2S)pyrrolidine-2,1-diyl[(2S)-3,3-dimethyl-1-oxobutane-1,2-diyl]})biscarbamate] | 100 to 250
11 | O=C(Nc1ccc(CN(Cc2ccc(NC(=O)[C@@H]3CCCN3C(=O)[C@@H](c3ccccc3)N3CCCC3)cc2)c2ccccc2)cc1)[C@@H]1CCCN1C(=O)[C@@H](c1ccccc1)N1CCCC1 [Example 55, (2S,2′S)-N,N′-[(phenylimino)bis(methanediylbenzene-4,1-diyl)]bis{1-[(2R)-2-phenyl-2-pyrrolidin-1-ylacetyl]pyrrolidine-2-carboxamide}] | < 1
12 | O=C(Nc1ccc(CN(Cc2ccc(NC(=O)[C@@H]3CCCN3C(=O)C(c3ccccc3)N3CC[C@H](F)C3)cc2)c2ccc(F)cc2)cc1)[C@@H]1CCCN1C(=O)C(c1ccccc1)N1CC[C@H](F)C1 (single isomer, unassigned) [Example 120] | < 1
13 | COC(=O)N[C@H](C(=O)N1CCC[C@H]1C(=O)Nc1ccc(CN(Cc2ccc(NC(=O)[C@@H]3CCCN3C(=O)[C@@H](NC(=O)OC)C(C)C)cc2)c2ccc(F)cc2)cc1)C(C)C [Example 14] | < 1
14 | CCN(CC)[C@@H](C(=O)N1CCC[C@H]1C(=O)Nc1ccc(CN(Cc2ccc(NC(=O)[C@@H]3CCCN3C(=O)[C@@H](c3ccccc3)N(CC)CC)cc2)c2ccc(F)c(F)c2)cc1)c1ccccc1 [Example 89, (2S,2′S)-N,N′-{[(3,4-difluorophenyl)imino]bis(methanediylbenzene-4,1-diyl)}bis{1-[(2R)-2-(diethylamino)-2-phenylacetyl]pyrrolidine-2-carboxamide}] | < 1
15 | COC(=O)N[C@H](C(=O)N1CCC[C@H]1C(=O)Nc1ccc(CN(Cc2ccc(NC(=O)[C@@H]3CCCN3C(=O)[C@@H](NC(=O)OC)C(C)(C)C)cc2)c2ccc(F)c(F)c2)cc1)C(C)(C)C [Example 90, dimethyl ([(3,4-difluorophenyl)imino]bis{methanediylbenzene-4,1-diylcarbamoyl(2S)pyrrolidine-2,1-diyl[(2S)-3,3-dimethyl-1-oxobutane-1,2-diyl]})biscarbamate] | < 1
16 | CC(=O)O[C@H](C(=O)N1CCC[C@H]1C(=O)Nc1ccc(CN(Cc2ccc(NC(=O)[C@@H]3CCCN3C(=O)[C@H](OC(C)=O)c3ccccc3)cc2)c2ccc(F)cc2)cc1)c1ccccc1 [Example 113, [(4-fluorophenyl)imino]bis[methanediylbenzene-4,1-diylcarbamoyl(2S)pyrrolidine-2,1-diyl(1R)-2-oxo-1-phenylethane-2,1-diyl]diacetate] | < 1
17 | COC(=O)N[C@H](C(=O)N1CCC[C@H]1C(=O)Nc1ccc(CN(Cc2ccc(NC(=O)[C@@H]3CCCN3C(=O)[C@@H](NC(=O)OC)C(C)(C)C)cc2)c2ccon2)cc1)C(C)(C)C [Example 33, dimethyl[(isoxazol-3-ylimino)bis{methanediylbenzene-4,1-diylcarbamoyl(2S)pyrrolidine-2,1-diyl[(2S)-3,3-dimethyl-1-oxobutane-1,2-diyl]}]biscarbamate] | 1 to 10
18 | CCN(CC)[C@@H](C(=O)N1CCC[C@H]1c1nc2cc(CN(Cc3ccc4[nH]c([C@@H]5CCCN5C(=O)[C@@H](c5ccccc5)N(CC)CC)nc4c3)c3ccc(F)cc3)ccc2[nH]1)c1ccccc1 [Example 95, N,N-bis[(2-{(2S)-1-[(2R)-2-(diethylamino)-2-phenylacetyl]pyrrolidin-2-yl}-1H-benzimidazol-5-yl)methyl]-4-fluoroaniline] | < 1
19 | CC(=O)N[C@H](C(=O)N1CCC[C@H]1C(=O)Nc1ccc(CN(Cc2ccc(NC(=O)[C@@H]3CCCN3C(=O)[C@@H](NC(C)=O)C(C)(C)C)cc2)c2ccccc2)cc1)C(C)(C)C [Example 79, (2S,2′S)-N,N′-[(phenylimino)bis(methanediylbenzene-4,1-diyl)]bis {1-[(2S)-2-(acetylamino)-3,3-dimethylbutanoyl]pyrrolidine-2-carboxamide}] | 10 to 100
20 | CCN[C@@H](C(=O)N1CCC[C@H]1C(=O)Nc1ccc(CN(Cc2ccc(NC(=O)[C@@H]3CCCN3C(=O)[C@H](NCC)c3ccccc3)cc2)c2ccc(F)cc2)cc1)c1ccccc1 [Example 131, (2S,2′S)-N,N′-{[(4-fluorophenyl)imino]bis(methanediylbenzene-4,1-diyl)}bis{1-[(2R)-2-(ethylamino)-2-phenylacetyl]pyrrolidine-2-carboxamide}] | < 1
21 | COC(=O)N[C@H](C(=O)N1CCC[C@H]1C(=O)Nc1ccc(CN(Cc2ccc(NC(=O)[C@@H]3CCCN3C(=O)[C@H](NC(=O)OC)c3ccccc3)cc2)c2ccccc2)cc1)[C@H]1CCOC1 [Example 72] | < 1
22 | COC(=O)N[C@H](C(=O)N1CCC[C@H]1C(=O)Nc1ccc(CN(Cc2ccc(NC(=O)[C@@H]3CCCN3C(=O)[C@H](NC(=O)OC(C)(C)C)c3ccccc3)cc2)c2ccccc2)cc1)C(C)(C)C [Example 74, N-(methoxycarbonyl)-3-methyl-L-valyl-N-(4-{[{4-[(1-{(2R)-2-[(tert-butoxycarbonyl)amino]-2-phenylacetyl}-L-prolyl)amino]benzyl}(phenyl)amino]methyl}phenyl)-L-prolinamide] | < 1
23 | COC(=O)N[C@H](C(=O)N1CCC[C@H]1C(=O)Nc1ccc(CN(Cc2ccc(NC(=O)[C@@H]3CCCN3C(=O)[C@@H](NC(=O)OC)C(C)(C)C)cc2)C(C)C)cc1)C(C)(C)C [Example 30, dimethyl ([(1-methylethyl)imino]bis{methanediylbenzene-4,1-diylcarbamoyl(2S)pyrrolidine-2,1-diyl[(2S)-3,3-dimethyl-1-oxobutane-1,2-diyl]})biscarbamate] | 100 to 250
